Here are results for 17 compounds from US11976083B2, “Inhibitors of peptidylarginine deiminases” (Gilead Sciences, Inc., priority 2020, dated 2024).

Molecules are shown by their SMILES. pIC50: −log10 of the molar value.

The assay addresses T1, human PAD4 (Homo sapiens, UniProt Q9UM07).
T1 construct: human PAD4 (NM_012387), A2-P663, was PCR amplified; His-SUMO (N, cleaved yes); made in house; host or cells: E. coli BL21(DE3)
The assay is described as follows: In vitro PAD4 BAEE biochemical assay. The settings on record: BAEE substrate 3 mM, 5 nM PAD4, 2 mM calcium chloride; geometric mean of multiple experiments. In outline: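 Recombinant PAD4 (5 nM final) with 2 mM CaCl2 was preincubated with compound for 30 min at 25 °C in MOPS pH 7.6 buffer with DTT, then reacted with 3 mM BAEE for 2 h at 25 °C. Released ammonia was detected fluorimetrically with o-phthalaldehyde/DTT; IC50 from four-parameter fit, geometric mean of experiments.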

T1 sequence (Q9UM07 2-663): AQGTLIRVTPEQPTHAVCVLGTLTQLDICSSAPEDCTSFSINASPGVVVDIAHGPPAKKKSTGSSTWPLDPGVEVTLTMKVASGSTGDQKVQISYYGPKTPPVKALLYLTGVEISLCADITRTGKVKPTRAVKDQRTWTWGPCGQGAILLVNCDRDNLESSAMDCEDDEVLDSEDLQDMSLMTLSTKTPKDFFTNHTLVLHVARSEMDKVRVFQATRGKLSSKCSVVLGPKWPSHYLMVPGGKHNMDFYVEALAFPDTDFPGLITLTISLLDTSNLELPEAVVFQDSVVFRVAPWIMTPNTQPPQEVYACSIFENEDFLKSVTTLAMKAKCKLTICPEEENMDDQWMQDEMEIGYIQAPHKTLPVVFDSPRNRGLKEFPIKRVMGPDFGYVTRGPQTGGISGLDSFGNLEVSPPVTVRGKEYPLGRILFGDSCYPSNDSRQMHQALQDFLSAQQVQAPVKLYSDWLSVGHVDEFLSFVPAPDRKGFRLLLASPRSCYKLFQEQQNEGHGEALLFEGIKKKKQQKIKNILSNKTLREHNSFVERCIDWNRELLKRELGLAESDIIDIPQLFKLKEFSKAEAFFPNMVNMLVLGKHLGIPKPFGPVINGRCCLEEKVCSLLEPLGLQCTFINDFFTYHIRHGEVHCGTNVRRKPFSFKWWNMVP

Consider `COc1cc(C(=O)N2CC[C@@H](OC)[C@@H](N)C2)cc2nc(-c3cc4ccc5nc4n3CCCCCc3ccncc3C(=O)N[C@@H]5C)n(C)c12` [Example 649, (2~{R})-17-[5-[(3~{S), 4~{R})-3-amino-4-methoxy-piperidine-1-carbonyl]-7-methoxy-1-methyl-benzimidazol-2-yl]-2-methyl-3,7,16,22-tetrazatetracyclo[14.5.2.0^ {5,10}.0^{19,23}] tricosa-1(22),5,7,9,17,19(23), 20-heptaen-4-one], for which the pIC50 was 7.28.
For the compound `C[C@H]1NC(=O)[C@]2(F)C[C@H]2CCCCCn2c(-c3nc4cc(C(=O)N[C@H]5CNCC[C@@H]5F)c(F)cc4n3C3CC3)cc3ccc1nc32` [Example 387, 1-cyclopropyl-6-fluoro-2-[(2~{R},5~{S},7~{R})-5-fluoro-2-methyl-4-oxo-3,13,19-triazatetracyclo[11.5.2.0^{5,7}.0^{16,20}]icosa-1(19),14,16(20),17-tetraen-14-yl]-~ {N}-[(3~{S},4~{S})-4-fluoro-3-piperidyl]benzimidazole-5-carboxamide], the pIC50 is 7.60.
The result for `COc1cc(C(=O)N2C[C@H](N)[C@@H]3CC[C@H]2C3)cc2nc(-c3cc4ccc5nc4n3CC(F)(F)CCC[C@@H]3C[C@H]3C(=O)N[C@@H]5C)n(C3CC3)c12` [Example 766, (2~{R},5~{R},7~{R})-14-[5-[(1~{S},4~{R},5~{R})-4-amino-2-azabicyclo[3.2.1]octane-2-carbonyl]-1-cyclopropyl-7-methoxy-benzimidazol-2-yl]-11,11-difluoro-2-methyl-3,13,19-triazatetracyclo [11.5.2.0^{5,7}.0^{16,20}] icosa-1(19),14,16(20),17-tetraen-4-one] reads 7.55.
In the case of `C[C@H]1NC(=O)c2ccc(Cl)nc2CCCCCn2c(-c3nc4cc(C(=O)N5C[C@H](N)[C@@H]6CC[C@H]5C6)cc(F)c4n3[C@@H]3C[C@H]3F)cc3ccc1nc32` [Example 473, (2~{R})-17-[5-[(1~{S},4~{R},5~{R})-4-amino-2-azabicyclo[3.2.1]octane-2-carbonyl]-7-fluoro-1-[(1~{R},2~{R})-2-fluorocyclopropyl]benzimidazol-2-yl]-8-chloro-2-methyl-3,9,16,22-tetrazatetracyclo[14.5.2.0^{5,10}.0^{19,23}] tricosa-1(22),5(10),6,8,17,19(23),20-heptaen-4-one], the pIC50 was 7.36.
With `COc1cc(C(=O)N2[C@H]3CC[C@@H]2[C@H](N)C3)cc2nc(-c3cc4ccc5cc4n3CCCCCCCC(=O)N[C@@H]5C)n(C)c12` [Example 215, (11˜{R})-17-[5-[(1˜{R},2˜{R},4˜{S})-2-amino-7-azabicyclo[2.2.1]heptane-7-carbonyl]-7-methoxy-1-methyl-benzimidazol-2-yl]-11-methyl-1,10-diazatricyclo[10.5.2.0^{15,18}]nonadeca-12(19),13,15(18),16-tetraen-9-one], the negative-log IC50 (pIC50) is 7.70.
`COc1cc(C(=O)N2[C@H]3CC[C@@H]2[C@H](N)C3)cc2nc(-c3cc4ccc5nc4n3CCCCC[C@@H](OC)CC(=O)N[C@@H]5C)c(C)n12` [Example 333, (7~{R},11~{R})-17-[7-[(1~{R},2~{R},4~{S})-2-amino-7-azabicyclo[2.2.1]heptane-7-carbonyl)-5-methoxy-3-methyl-imidazo[1,2-a]pyridin-2-yl]-7-methoxy-11-methyl-1,10,19-triazatricyclo[10.5.2.0^{15,18}]nonadeca-12(19),13,15(18),16-tetraen-9-one]: the negative-log IC50 (pIC50) was 7.48.
The result for `COc1cc(C(=O)N2CC[C@@H](O)[C@@H](N)C2)cc2nc(-c3cc4ccc5nc4n3CC(F)(F)CCC[C@@H]3C[C@H]3C(=O)N[C@@H]5C)n(C)c12` [Example 680, (2~{R},5~{R},7~{R})-14-[5-[(3~{S},4~{R})-3-amino-4-hydroxy-piperidine-1-carbonyl]-7-methoxy-1-methyl-benzimidazol-2-yl]-11,11-difluoro-2-methyl-3,13,19-triazatetracyclo[11.5.2.0^ {5,7}.0^{16,20}]icosa-1(19), 14,16(20),17-tetraen-4-one] reads 7.47; that for `COc1cc(C(=O)N2[C@H]3CC[C@@H]2[C@H](N)C3)cc2nc(-c3cc4ccc5nc4n3CCCCCC[C@H](C)C(=O)N[C@@H]5C)c(C)n12` [Example 124, (8~{S},11~{R})-17-[7-[(1~{R},2~{R},4~{S})-2-amino-7-azabicyclo[2.2.1]heptane-7-carbonyl]-5-methoxy-3-methyl-imidazo[1,2-a]pyridin-2-yl]-8,11-dimethyl-1,10,19-triazatricyclo[10.5.2.0^{15,18}]nonadeca-12(19),13,15(18),16-tetraen-9-one], 7.92.
For `COc1cc(C(=O)N2[C@H]3CC[C@@H]2[C@H](N)C3)cc2nc(-c3cc4ccc5nc4n3CCCCCCCC(=O)N3CC4(CC4)CC53)n(C)c12` (some centres unmarked) [Example 134, 16-[5-[(1˜{R},2˜{R},4˜{S})-2-amino-7-azabicyclo[2.2.1]heptane-7-carbonyl]-7-methoxy-1-methyl-benzimidazol-2-yl]spiro[6,15,21-triazatetracyclo[13.5.2.0^{2,6}.0^{18,22}]docosa-1(21),16,18(22),19-tetraene-4,1′-cyclopropane]-7-one] the value was 6.90.
Regarding `COc1cc(C(=O)N2CC[C@@H](OC)[C@@H](N)C2)cc2nc(-c3cc4ccc5nc4n3CCCCCc3cncc(Cl)c3C(=O)N[C@@H]5C)n(C)c12` [Example 651, (2~{R})-17-[5-[(3~{S}, 4~{R})-3-amino-4-methoxy-piperidine-1-carbonyl]-7-methoxy-1-methyl-benzimidazol-2-yl]-6-chloro-2-methyl-3,8,16,22-tetrazatetracyclo[14.5.2.0^ {5,10).0^{19,23}]tricosa-1(22),5,7,9,17,19(23),20-heptaen-4-one], the pIC50 was 7.23.
For `COc1cc(C(=O)N2CC[C@@H](OC(F)F)[C@@H](N)C2)cc2nc(-c3cc4ccc5nc4n3CC(F)(F)CCC[C@@H]3C[C@H]3C(=O)N[C@@H]5C)n(C)c12` [Example 850, (2~{R},5~{R},7~{R})-14-[5-[(3~{S},4~{R})-3-amino-4-(difluoromethoxy)piperidine-1-carbonyl]-7-methoxy-1-methyl-benzimidazol-2-yl]-11,11-difluoro-2-methyl-3,13,19-triazatetracyclo[11.5.2.0^ {5,7}.0^{16,20}]icosa-1(19), 14,16(20),17-tetraen-4-one] the value was 7.19.
For `C[C@H]1NC(=O)C(C)(C)CCCCCn2c(-c3nc4cc(C(=O)N[C@H]5CNCC[C@@H]5F)c(F)cc4n3C3CC3)cc3ccc1nc32` [Example 515, 1-cyclopropyl-6-fluoro- ~{N}-[(3~{S},4~{S})-4-fluoro-3-piperidyl]-2-[(10~{R})-7,7,10-trimethyl-8-oxo-1,9,18-triazatricyclo [9.5.2.0^{14,17}]octadeca-11(18),12,14(17),15-tetraen-16-yl]benzimidazole-5-carboxamide] the value was 7.13; for `C[C@H]1NC(=O)[C@@H]2C[C@H]2CCCCCn2c(-c3nc4cc(C(=O)N[C@H]5CNCC[C@@H]5F)c(F)c(F)c4n3C3CC3)cc3ccc1nc32` (single isomer, unassigned) [Example 275, 1-cyclopropyl-6,7-difluoro-˜{N}-[(3˜{S},4˜{S})-4-fluoro-3-piperidyl]-2-[(2˜{R},5˜{R},7˜{R})-2-methyl-4-oxo-3,13,19-triazatetracyclo[11.5.2.0^{5,7}.0^{16,20}]icosa-1(19),14,16(20),17-tetraen-14-yl]benzimidazole-5-carboxamide], 7.62.
For `COc1cc(C(=O)N[C@H]2CNCC[C@@H]2F)cc2nc(-c3cc4ccc5nc4n3CCCCCc3cccc(C)c3C(=O)N[C@@H]5C)n(C)c12` [Example 363, 2-[(2~{R})-2,6-dimethyl-4-oxo-3,16,22-triazatetracyclo[14.5.2.0^{5,10}.0^{19,23}]tricosa-1(22),5(10),6,8,17,19(23),20-heptaen-17-yl]-~{N}-[(3~{S},4~{S})-4-fluoro-3-piperidyl]-7-methoxy-1-methyl-benzimidazole-5-carboxamide] the value was 6.96.
On to `C[C@@H]1[C@H](N)CCCN1C(=O)c1cc(F)c2c(c1)nc(-c1cc3ccc4nc3n1CCCCC[C@]1(F)C[C@H]1C(=O)N[C@@H]4C)n2C1CC1` [Example 705, (2~{R},5~{S},7~{S})-14-[5-[(2~{R},3~{R})-3-amino-2-methyl-piperidine-1-carbonyl]-1-cyclopropyl-7-fluoro-benzimidazol-2-yl]-7-fluoro-2-methyl-3,13,19-triazatetracyclo[11.5.2.0^ {5,7}.0^{16,20}]icosa-1(19),14,16(20),17-tetraen-4-one], for which the pIC50 is 7.70.
For `CCC1NC(=O)C(C)(C)CCCCCCn2c(-c3nc4cc(C(=O)N5CC[C@@H](OC)[C@@H](N)C5)cc(OC)c4n3C)cc3ccc1nc32` (some centres unmarked) [Example 779, 17-[5-[(3~{S),4~{R})-3-amino-4-methoxy-piperidine-1-carbonyl]-7-methoxy-1-methyl-benzimidazol-2-yl]-11-ethyl-8,8-dimethyl-1,10,19-triazatricyclo[10.5.2.0^ {15,18}]nonadeca-12,14,16,18-tetraen-9-one], the pIC50 was 6.47.
The result for `Cc1nccc2c1C(=O)N[C@H](C)c1ccc3cc(-c4nc5cc(C(=O)N[C@H]6CNCC[C@@H]6F)c(F)cc5n4C4CC4)n(c3n1)CCCCC2` [Example 396, 1-cyclopropyl-2-[(2~{R})-2,6-dimethyl-4-oxo-3,7,16,22-tetrazatetracyclo[14.5.2.0^{5,10}.0^{19,23}]tricosa-1(22),5(10),6,8,17,19(23),20-heptaen-17-yl]-6-fluoro-~{N}-[(3~{S},4~{S})-4-fluoro-3-piperidyl]benzimidazole-5-carboxamide] reads 7.77.

Usually pIC50 stands for the IC50 on a negative log10 scale, so that one unit is a factor of ten.
